Common to all, as to format: cell-based
For one test, the target named is T1, GR (Homo sapiens, UniProt P04150).
T1 construct: expressed in transfected cells; host or cells: CV-1 cells
T1 sequence (P04150 1-777): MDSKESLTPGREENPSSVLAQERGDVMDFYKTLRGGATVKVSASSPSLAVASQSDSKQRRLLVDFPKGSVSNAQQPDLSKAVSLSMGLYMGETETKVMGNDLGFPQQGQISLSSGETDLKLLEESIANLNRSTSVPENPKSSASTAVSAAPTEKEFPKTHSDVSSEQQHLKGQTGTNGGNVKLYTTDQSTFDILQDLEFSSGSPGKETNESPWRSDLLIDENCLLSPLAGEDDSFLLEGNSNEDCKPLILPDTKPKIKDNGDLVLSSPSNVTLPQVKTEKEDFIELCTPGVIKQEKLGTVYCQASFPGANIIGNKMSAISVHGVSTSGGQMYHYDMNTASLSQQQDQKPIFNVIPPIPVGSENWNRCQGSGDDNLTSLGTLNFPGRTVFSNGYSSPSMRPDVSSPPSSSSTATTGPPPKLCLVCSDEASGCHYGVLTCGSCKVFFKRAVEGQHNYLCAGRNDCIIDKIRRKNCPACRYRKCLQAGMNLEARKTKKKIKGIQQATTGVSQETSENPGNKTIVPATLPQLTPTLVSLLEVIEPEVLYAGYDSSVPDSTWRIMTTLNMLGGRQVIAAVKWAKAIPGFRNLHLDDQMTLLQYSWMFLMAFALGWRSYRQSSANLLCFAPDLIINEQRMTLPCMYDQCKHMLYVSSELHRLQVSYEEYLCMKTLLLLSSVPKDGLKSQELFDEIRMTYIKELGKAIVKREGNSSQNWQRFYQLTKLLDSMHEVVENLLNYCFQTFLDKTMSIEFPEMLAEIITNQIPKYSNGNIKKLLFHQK
Description: co-transfection assay, GR antagonist. As for the experimental part: (§1) CV-1 cells (African green monkey kidney fibroblasts) were cultured in the presence of Dulbecco's Modified Eagle Medium (DMEM) supplemented with 10% charcoal resin-stripped fetal bovine serum (CH-FBS) then transferred to 96-well microtiter plates one day prior to transfection.
(§2) Three to four replicates were used for each sample.
(§3) After 40 hours, the cells were washed with PBS, lysed with a Triton X-100-based buffer and assayed for LUC and β-Gal activities using a luminometer or spectrophotometer, respectively. For each replicate, the normalized response (NR) was calculated as: […]

The next test deals with T2, MR (Homo sapiens, UniProt P08235).
T2 construct: expressed in transfected cells; host or cells: CV-1 cells
T2 sequence (P08235 1-984): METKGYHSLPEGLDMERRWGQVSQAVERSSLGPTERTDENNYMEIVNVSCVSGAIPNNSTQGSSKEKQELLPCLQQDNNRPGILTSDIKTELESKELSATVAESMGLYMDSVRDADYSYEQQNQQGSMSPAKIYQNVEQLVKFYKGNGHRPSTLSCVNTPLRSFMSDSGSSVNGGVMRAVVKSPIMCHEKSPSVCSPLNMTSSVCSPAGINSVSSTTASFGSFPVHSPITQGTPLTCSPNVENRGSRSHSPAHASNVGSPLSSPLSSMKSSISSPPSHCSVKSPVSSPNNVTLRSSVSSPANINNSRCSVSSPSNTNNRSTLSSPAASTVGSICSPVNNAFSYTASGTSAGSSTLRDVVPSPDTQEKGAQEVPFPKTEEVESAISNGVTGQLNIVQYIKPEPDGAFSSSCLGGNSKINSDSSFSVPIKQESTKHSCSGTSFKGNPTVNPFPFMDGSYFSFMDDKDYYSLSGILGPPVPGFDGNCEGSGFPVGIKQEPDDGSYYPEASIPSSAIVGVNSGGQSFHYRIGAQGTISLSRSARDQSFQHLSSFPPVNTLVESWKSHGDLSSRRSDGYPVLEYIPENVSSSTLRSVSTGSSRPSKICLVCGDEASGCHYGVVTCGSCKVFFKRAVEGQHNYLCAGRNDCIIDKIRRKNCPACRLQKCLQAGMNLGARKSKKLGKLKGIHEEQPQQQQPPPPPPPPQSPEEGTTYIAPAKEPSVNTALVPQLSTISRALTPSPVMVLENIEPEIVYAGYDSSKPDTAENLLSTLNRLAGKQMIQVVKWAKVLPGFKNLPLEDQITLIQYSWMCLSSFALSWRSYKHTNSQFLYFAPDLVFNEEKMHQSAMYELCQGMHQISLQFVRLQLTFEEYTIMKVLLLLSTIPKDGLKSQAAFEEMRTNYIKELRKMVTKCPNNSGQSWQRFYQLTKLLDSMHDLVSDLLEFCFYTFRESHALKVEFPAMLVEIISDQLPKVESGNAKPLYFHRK
Description: co-transfection assay, MR antagonist. As for the experimental part:
as §1, §2, §3

Test [1] concerns the target T3, PR (Homo sapiens, UniProt P06401).
T3 construct: expressed in transfected cells; host or cells: CV-1 cells
T3 sequence (P06401 1-933): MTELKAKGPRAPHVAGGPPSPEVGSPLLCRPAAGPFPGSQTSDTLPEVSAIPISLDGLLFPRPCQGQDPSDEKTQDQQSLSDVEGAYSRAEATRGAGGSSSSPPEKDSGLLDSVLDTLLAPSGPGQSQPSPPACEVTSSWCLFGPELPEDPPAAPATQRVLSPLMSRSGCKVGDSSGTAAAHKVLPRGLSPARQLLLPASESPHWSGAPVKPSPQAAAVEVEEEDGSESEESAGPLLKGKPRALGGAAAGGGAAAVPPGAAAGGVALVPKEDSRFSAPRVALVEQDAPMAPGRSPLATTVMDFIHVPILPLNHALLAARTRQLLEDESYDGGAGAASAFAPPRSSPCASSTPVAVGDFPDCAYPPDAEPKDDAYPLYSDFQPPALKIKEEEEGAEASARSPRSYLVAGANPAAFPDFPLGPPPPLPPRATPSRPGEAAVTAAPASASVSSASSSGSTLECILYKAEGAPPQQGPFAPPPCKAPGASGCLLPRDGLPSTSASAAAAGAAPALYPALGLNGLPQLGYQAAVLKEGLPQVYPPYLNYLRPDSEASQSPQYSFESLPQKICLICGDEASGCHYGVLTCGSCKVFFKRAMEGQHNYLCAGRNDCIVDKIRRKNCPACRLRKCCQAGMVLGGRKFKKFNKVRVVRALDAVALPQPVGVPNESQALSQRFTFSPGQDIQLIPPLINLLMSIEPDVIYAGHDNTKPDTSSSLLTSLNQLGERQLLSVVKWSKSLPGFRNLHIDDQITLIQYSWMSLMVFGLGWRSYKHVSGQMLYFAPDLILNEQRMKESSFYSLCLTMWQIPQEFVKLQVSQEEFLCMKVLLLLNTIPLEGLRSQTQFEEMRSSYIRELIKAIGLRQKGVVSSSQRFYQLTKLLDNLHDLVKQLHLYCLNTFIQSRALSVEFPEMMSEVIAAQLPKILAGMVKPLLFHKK
Description: co-transfection assay, PR agonist. As for the experimental part: as §1, §2, §3

Test [2] addresses T4, ER (Homo sapiens, UniProt P03372).
T4 construct: expressed in transfected cells; host or cells: CV-1 cells
Description: co-transfection assay, ER antagonist. As to the method: as §1, §2, §3

Test [3] concerns the target T4, ER. Description: co-transfection assay, ER agonist. As for the experimental part: as §1, §2, §3
For test [4], the target named is T3, PR. Description: co-transfection assay, PR antagonist (in presence of progesterone). As for the experimental part:
as §1, §2, §3

For orientation: IC50 means the concentration that inhibits the measured activity by half. As a reminder, the EC50 is the midpoint of the concentration-response curve. Low values mean greater potency, high ones weaker potency.

T4 sequence (P03372 whole entry): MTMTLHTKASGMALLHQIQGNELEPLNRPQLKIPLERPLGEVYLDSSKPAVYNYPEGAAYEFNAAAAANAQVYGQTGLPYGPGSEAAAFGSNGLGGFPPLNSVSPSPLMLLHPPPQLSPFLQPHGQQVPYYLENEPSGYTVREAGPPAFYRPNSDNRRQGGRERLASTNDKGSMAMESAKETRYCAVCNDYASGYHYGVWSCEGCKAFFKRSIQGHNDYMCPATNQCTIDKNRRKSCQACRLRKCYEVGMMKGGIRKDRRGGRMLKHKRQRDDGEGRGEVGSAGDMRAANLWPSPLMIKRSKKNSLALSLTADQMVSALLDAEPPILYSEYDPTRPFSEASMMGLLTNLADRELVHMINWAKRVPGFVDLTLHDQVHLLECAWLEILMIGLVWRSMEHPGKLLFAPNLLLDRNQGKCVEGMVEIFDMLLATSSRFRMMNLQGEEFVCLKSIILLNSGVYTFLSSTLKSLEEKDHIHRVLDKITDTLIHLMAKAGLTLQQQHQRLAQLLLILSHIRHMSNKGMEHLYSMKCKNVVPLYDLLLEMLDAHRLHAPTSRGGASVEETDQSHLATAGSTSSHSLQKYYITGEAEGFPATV

Consider `CN1CCOc2cc3[nH]c(=O)cc(C(F)(F)F)c3cc21` [Compound 101, 1,2,3,6-Tetrahydro-1-methyl-9-(trifluoromethyl)-7H-[1,4]oxazino[3,2-g]quinolin-7-one], for which the IC50 is 6.5 µM on GR, over 10 µM at MR, over 10 µM at ER [2] and over 10 µM at PR [4]. In addition, the concentration giving a half-maximal response (EC50) at PR [1] and at ER [3] was over 10 µM in each case.

Consider `CCN1CCOc2cc3[nH]c(=O)cc(C(F)(F)F)c3cc21` [Compound 103, 1-Ethyl-1,2,3,6-tetrahydro-9-(trifluoromethyl)-7H-[1,4]oxazino[3,2-g]quinolin-7-one], for which the IC50 on GR is over 10 µM; against MR, over 10 µM; on ER [2] it was over 10 µM; on PR [4], 4.5 µM. Besides, the EC50 at PR [1] and on ER [3] was over 10 µM each time.

Consider `O=c1cc(C(F)(F)F)c2cc3c(cc2[nH]1)OCCN3CC1CC1` [Compound 121, 1-Cyclopropylmethyl-1,2,3,6-tetrahydro-9-(trifluoromethyl)-7H-[1,4]oxazino[3,2-g]quinolin-7-one], for which the IC50 against GR was 1.05 µM; at MR, 2.57 µM; against ER [2], over 10 µM; on PR [4], 0.415 µM. Further, the EC50 on PR [1] and at ER [3] was over 10 µM in each case.

The values are drawn from patent US6462038B1, “Androgen receptor modulator compounds and methods” (Ligand Pharmaceuticals, Inc., priority 1999, dated 2002).
